Data from PubChem BioAssay AID977614 (Broad Institute, 2014).
The source made the active and inactive calls.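 Rule for the calls: active = parasite count per well reduced by over 3 SD from the mean, with host cell number above 80% of untreated; inactive = the rest.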

Test system: L. donovani amastigotes in THP-1 macrophages, DAPI imaging, 72 h
Experiment: L. donovani intracellular amastigote growth inhibitors, imaging, THP-1 host macrophages, single concentration (AID 977614);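 note: signal is the parasite per host cell ratio from DAPI stained kinetoplasts and nuclei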

SMILES | AC50
CC(=O)N1[C@H](CNC(=O)CN(C)C)[C@@H](c2ccc(C3=CCCCC3)cc2)[C@@H]1CO | > 10 µM (inactive)
Cc1noc(C)c1NC(=O)N(C)C[C@@H]1OCc2cnnn2CCCC(=O)N([C@H](C)CO)C[C@H]1C | > 10 µM (inactive)
C/C=C/c1ccc([C@H]2[C@@H](CO)N[C@@H]2CN(CC(C)C)C(=O)c2ccccn2)cc1 | > 10 µM (inactive)
COc1ccccc1CN1[C@@H]2CN(C(=O)c3cccnc3)c3ccccc3[C@@H]2[C@@H]1CO | > 10 µM (inactive)
C[C@@H]1CN([C@@H](C)CO)C(=O)CCCn2nncc2CO[C@@H]1CN(C)CC1CCCCC1 | > 10 µM (inactive)
CCC(=O)NC[C@@H]1[C@@H](c2ccc(-c3cccc(F)c3)cc2)[C@@H](CO)N1CC1CC1 | > 10 µM (inactive)
CN1[C@@H]2CNc3ccccc3[C@@H]2[C@@H]1CO | > 10 µM (inactive)
CC(=O)N1[C@@H](CO)[C@@H](c2ccccc2)[C@@H]1CN(CC1CCC1)C(=O)CN(C)C | > 10 µM (inactive)
CC(=O)N1[C@@H](CO)[C@@H](c2ccccc2)[C@@H]1CN(C)S(=O)(=O)c1ccccc1 | > 10 µM (inactive)
O=C(C1CC1)N1C[C@H]2[C@@H](c3ccccc31)[C@@H](CO)N2C(=O)c1ccccc1 | > 10 µM (inactive)
Cc1cccc(S(=O)(=O)N2C[C@@H]3[C@H](c4ccccc42)[C@H](CO)N3C(=O)c2ccccc2)c1 | > 10 µM (inactive)
O=C(C1CCC1)N1C[C@@H]2[C@H](c3ccccc31)[C@@H](CO)N2C(=O)Nc1cccc(F)c1 | > 10 µM (inactive)
C[C@H]1CN([C@@H](C)CO)C(=O)CCCn2nncc2CO[C@@H]1CN(C)S(=O)(=O)c1ccc2c(c1)OCCCO2 | > 10 µM (inactive)
CN1[C@H](CO)[C@H]2c3ccccc3N(C(=O)Nc3cc(F)ccc3F)C[C@H]21 | > 10 µM (inactive)
CC(=O)N1[C@H](CO)[C@H](c2ccccc2)[C@H]1CNC(=O)CN1CCOCC1 | > 10 µM (inactive)
CCNC[C@@H]1[C@H](c2ccccc2)[C@@H](CO)N1C(=O)Cc1ccccn1 | > 10 µM (inactive)
COCC(=O)N1[C@@H](CO)[C@@H]2c3ccccc3N(C(=O)Nc3ccccc3Cl)C[C@@H]21 | > 10 µM (inactive)
O=S(=O)(NC[C@H]1[C@@H](c2ccccc2)[C@@H](CO)N1CC1CC1)c1ccccc1 | > 10 µM (inactive)
CC(=O)N(Cc1cccc(F)c1)C[C@@H]1[C@@H](c2ccccc2)[C@@H](CO)N1C(C)=O | > 10 µM (inactive)
COc1ccc(CN(C)C[C@H]2OCc3cnnn3CCCC(=O)N([C@@H](C)CO)C[C@H]2C)cc1 | > 10 µM (inactive)
COCC(=O)N1[C@H](CO)[C@@H]2c3ccccc3NC[C@@H]21 | > 10 µM (inactive)
O=C(CC(F)(F)F)N1C[C@H]2[C@@H](c3ccccc31)[C@@H](CO)N2Cc1cccnc1 | > 10 µM (inactive)
CCS(=O)(=O)N1[C@H](CO)[C@H](c2ccccc2)[C@H]1CN(C(C)=O)C1CCCC1 | > 10 µM (inactive)
CCS(=O)(=O)N(C)C[C@@H]1N[C@H](CO)[C@@H]1c1ccc(C2=CCCCC2)cc1 | > 10 µM (inactive)
CCC(=O)N1[C@H](CO)[C@@H](c2ccccc2)[C@@H]1CN(CC)C(=O)c1cccc(F)c1 | > 10 µM (inactive)
CC(C)N(C[C@H]1[C@@H](c2ccccc2)[C@@H](CO)N1CC1CC1)C(=O)C1CCC1 | > 10 µM (inactive)

SMILES | AC50
CCN(C[C@H]1[C@H](c2ccccc2)[C@H](CO)N1CC1CC1)C(=O)c1ccccn1 | > 10 µM (inactive)
COCCNC[C@H]1[C@@H](c2ccccc2)[C@@H](CO)N1c1nc(C)c(C)s1 | > 10 µM (inactive)
O=C(c1ccccc1F)N1C[C@@H]2[C@H](c3ccccc31)[C@@H](CO)N2Cc1ccc2c(c1)OCO2 | > 10 µM (inactive)
O=C(CC(F)(F)F)N1C[C@H]2[C@@H](c3ccccc31)[C@H](CO)N2Cc1cccnc1 | > 10 µM (inactive)
O=C(Nc1ccc(F)cc1)N1[C@@H](CO)[C@@H]2c3ccccc3NC[C@@H]21 | > 10 µM (inactive)
C[C@H]1CN([C@@H](C)CO)C(=O)CCCn2nncc2CO[C@H]1CN(C)S(=O)(=O)c1ccccc1C#N | > 10 µM (inactive)
CN(C[C@H]1N[C@@H](CO)[C@@H]1c1ccccc1)C(=O)c1ccccn1 | > 10 µM (inactive)
O=C(c1ccccc1F)N1C[C@@H]2[C@H](c3ccccc31)[C@H](CO)N2Cc1ccc2c(c1)OCO2 | > 10 µM (inactive)
CC(=O)NC[C@@H]1[C@@H](c2ccc(C3=CCCC3)cc2)[C@H](CO)N1Cc1cccnc1 | > 10 µM (inactive)
CNC[C@H]1OCc2cn(nn2)CCCC(=O)N([C@@H](C)CO)C[C@@H]1C | > 10 µM (inactive)
Cc1cccc(S(=O)(=O)N2C[C@@H]3[C@H](c4ccccc42)[C@@H](CO)N3CC2CCCC2)c1 | > 10 µM (inactive)
CC(C)NC(=O)N1[C@@H](CO)[C@@H]2c3ccccc3NC[C@@H]21 | > 10 µM (inactive)
C[C@@H]1CN([C@@H](C)CO)C(=O)CCCn2nncc2CO[C@H]1CN(C)C(=O)NC1CCCC1 | > 10 µM (inactive)
C[C@H](CO)N1C[C@H](C)[C@@H](CN(C)Cc2cccc(C(F)(F)F)c2)OCc2cnnn2CCCC1=O | > 10 µM (inactive)
C[C@@H]1CN([C@H](C)CO)C(=O)CCCn2cc(nn2)CO[C@@H]1CN(C)C(=O)Oc1ccc2ccccc2c1 | > 10 µM (inactive)
C/C=C/c1ccc([C@H]2[C@@H](CO)N(CCC)[C@H]2CNC(=O)CN2CCOCC2)cc1 | > 10 µM (inactive)
CCC(=O)NC[C@H]1N[C@H](CO)[C@@H]1c1ccc(-c2cccnc2)cc1 | > 10 µM (inactive)
C[C@H]1CN([C@@H](C)CO)C(=O)CCCn2nncc2CO[C@@H]1CN(C)C(=O)Oc1cccc2ccccc12 | > 10 µM (inactive)
C[C@@H]1CN([C@@H](C)CO)C(=O)CCCn2nncc2CO[C@@H]1CN(C)C(=O)NC1CCCC1 | > 10 µM (inactive)
Cc1cccc(S(=O)(=O)N2C[C@H]3[C@@H](c4ccccc42)[C@H](CO)N3Cc2ccc3c(c2)OCO3)c1 | > 10 µM (inactive)
CN(C[C@H]1[C@H](c2ccccc2)[C@@H](CO)N1Cc1ccccn1)S(C)(=O)=O | > 10 µM (inactive)
CC(C)N(C[C@H]1[C@H](c2ccccc2)[C@H](CO)N1S(C)(=O)=O)C(=O)CN(C)C | > 10 µM (inactive)
COCC(=O)N(C[C@H]1N[C@H](CO)[C@@H]1c1ccc(C2=CCCC2)cc1)C1CCCC1 | > 10 µM (inactive)
O=C(NC[C@@H]1[C@H](c2ccccc2)[C@H](CO)N1C(=O)C1CCC1)NC1CCCC1 | > 10 µM (inactive)
O=C(c1ccccc1)N1C[C@H]2[C@@H](c3ccccc31)[C@@H](CO)N2Cc1ccccn1 | > 10 µM (inactive)
COc1ccccc1S(=O)(=O)N(C)C[C@@H]1OCc2cn(nn2)CCCC(=O)N([C@H](C)CO)C[C@H]1C | > 10 µM (inactive)

SMILES | AC50
CC(=O)NC[C@H]1[C@H](c2ccc(C3=CCCC3)cc2)[C@@H](CO)N1Cc1cccnc1 | > 10 µM (inactive)
CCN(C[C@@H]1N[C@@H](CO)[C@H]1c1ccccc1)C(=O)c1ccncc1 | > 10 µM (inactive)
CCC(=O)N1[C@@H](CO)[C@@H]2c3ccccc3N(C(=O)c3cnccn3)C[C@@H]21 | > 10 µM (inactive)
CCS(=O)(=O)N(C)C[C@H]1[C@@H](c2ccccc2)[C@@H](CO)N1C(=O)CN(C)C | > 10 µM (inactive)
CCN(C[C@H]1[C@@H](c2ccccc2)[C@H](CO)N1CC1CC1)C(=O)c1ccccn1 | > 10 µM (inactive)
COCCN(C[C@H]1N[C@H](CO)[C@@H]1c1ccc(-c2cccc(C#N)c2)cc1)C(C)=O | > 10 µM (inactive)
C[C@H](CO)N1C[C@H](C)[C@H](CN(C)C(=O)CCC(F)(F)F)OCc2cnnn2CCCC1=O | > 10 µM (inactive)
Cc1noc(C)c1NC(=O)N(C)C[C@@H]1OCc2cnnn2CCCC(=O)N([C@@H](C)CO)C[C@H]1C | > 10 µM (inactive)
C[C@@H]1CN([C@@H](C)CO)C(=O)CCCn2nncc2CO[C@@H]1CN(C)S(=O)(=O)c1ccccc1C#N | > 10 µM (inactive)
O=C(Nc1cccc(F)c1)N1C[C@H]2[C@@H](c3ccccc31)[C@@H](CO)N2C(=O)Cc1ccccn1 | > 10 µM (inactive)
CCN(C[C@H]1[C@H](c2ccccc2)[C@H](CO)N1C(C)=O)C(=O)NC1CCCC1 | > 10 µM (inactive)
C[C@@H]1CN([C@@H](C)CO)C(=O)CCCn2cc(nn2)CO[C@@H]1CN(C)C(=O)Oc1ccc2ccccc2c1 | > 10 µM (inactive)
C[C@@H]1CN([C@H](C)CO)C(=O)CCCn2cc(nn2)CO[C@@H]1CN(C)S(=O)(=O)c1ccc(-n2cccn2)cc1 | > 10 µM (inactive)
CN1C[C@H]2[C@@H](c3ccccc31)[C@@H](CO)N2C(=O)c1cccnc1 | > 10 µM (inactive)
CC(=O)N1[C@H](CO)[C@@H](c2ccccc2)[C@H]1CN(CC(C)C)C(=O)c1ccccn1 | > 10 µM (inactive)
CCN(C[C@H]1N[C@@H](CO)[C@@H]1c1ccccc1)C(=O)c1ccncc1 | > 10 µM (inactive)
CN(C[C@H]1[C@H](c2ccccc2)[C@H](CO)N1Cc1ccccn1)S(C)(=O)=O | > 10 µM (inactive)
CC(=O)N1[C@H](CO)[C@@H](c2ccccc2)[C@@H]1CN(CC1CCC1)C(=O)CN(C)C | > 10 µM (inactive)
COCC(=O)N1C[C@H]2[C@@H](c3ccccc31)[C@H](CO)N2Cc1cc(F)ccc1F | > 10 µM (inactive)
C[C@@H]1CN([C@H](C)CO)C(=O)CCCn2nncc2CO[C@H]1CN(C)C(=O)CCC(F)(F)F | > 10 µM (inactive)
O=C(CN1CCOCC1)NC[C@@H]1N[C@@H](CO)[C@H]1c1ccc(-c2ccccc2)cc1 | > 10 µM (inactive)
O=C(Nc1cccc(F)c1)N1C[C@@H]2[C@H](c3ccccc31)[C@H](CO)N2C(=O)Cc1ccccn1 | > 10 µM (inactive)
CCN(C[C@H]1N[C@H](CO)[C@H]1c1ccccc1)C(=O)c1ccncc1 | > 10 µM (inactive)
C[C@H]1CN([C@@H](C)CO)C(=O)CCCn2nncc2CO[C@H]1CN(C)C(=O)Oc1cccc2ccccc12 | > 10 µM (inactive)
O=C(Cc1ccccc1)N1C[C@@H]2[C@H](c3ccccc31)[C@@H](CO)N2S(=O)(=O)c1ccccc1 | > 10 µM (inactive)
C[C@H](CO)N1C[C@H](C)[C@@H](CN(C)C(=O)Nc2cccc(C(F)(F)F)c2)OCc2cn(nn2)CCCC1=O | > 10 µM (inactive)
